In US7244738B2, “Arylamine-substituted quinazolinone compounds useful as alpha 1A/B adrenergic receptor antagonists” (Roche Palo Alto LLC, priority 2003, dated 2007):

SMILES	melting point [°C]
CONC(=O)Nc1cccc(CN(C)c2nc(=O)c3c(OC)c(OC)c(OC)cc3[nH]2)c1 [Example 181, N-Methoxy-N′-(3-{[methyl-(5,6,7-trimethoxy-4-oxo-1,4-dihydro-quinazolin-2-yl)-amino]-methyl-}-phenyl)-urea]	165 to 167
COc1cc2[nH]c(N(C)Cc3cccc(NCCO)c3)nc(=O)c2c(OC)c1OC [Example 182, 2-{[3-(2-Hydroxy-ethylamino)-benzyl]-methyl-amino}-5,6,7-trimethoxy-1H-quinazolin-4-one]	60.5 to 61.5
COc1cc2[nH]c(N(C)Cc3cccc(N(CCO)CCO)c3)nc(=O)c2c(OC)c1OC [Example 190, 2-({3-[Bis(2-hydroxy-ethyl)-amino]-bewnzyl}-methyl-amino)-5,6,7-trimethoxy-1H-quinazolin-4-one]	138.1 to 141
COc1cc2[nH]c(N(C)C(C)c3cccc(NCCNC(C)=O)c3)nc(=O)c2c(C)c1OC (stereo not shown) [Example 191, N-[2-(3-{1-[(6,7-Dimethoxy-5-methyl-4-oxo-1,4-dihydro-quinazolin-2-yl)-methyl-amino]-ethyl}-phenylamino)-ethyl]-acetamide]	220.6 to 222.4
C/N=C(/C)N(C)c1cccc(CN(C)c2nc(=O)c3c(C)c(OC)c(OC)cc3[nH]2)c1 [Example 194]	181.2 to 186.6
CN/C(C)=N/c1cccc(CN(C)c2nc(=O)c3c(C)c(OC)c(OC)cc3[nH]2)c1 [Example 195, N-(3-{[(6,7-Dimethoxy-5-methyl-4-oxo-1,4-dihydro-quinazolin-2-yl)-methyl-amino]-methyl}-phenyl)-N′-methyl-acetamide]	233.1 to 233.9
COc1cc2[nH]c(N(C)Cc3cccc(/N=C/N(C)C)c3)nc(=O)c2c(C)c1OC [Example 196]	185 to 186
COc1cc2[nH]c(N(C)Cc3cccc(/N=C(/C)N(C)C)c3)nc(=O)c2c(OC)c1OC [Example 197, N,N-Dimethyl-N′-(3-{[methyl-(5,6,7-trimethoxy-4-oxo-1,4-dihydro-quinazolin-2-yl)-amino]-methyl}-phenyl)acetamidine]	199 to 201
COc1cc2[nH]c(N(C)Cc3cccc(/N=C(\C(C)C)N(C)C)c3)nc(=O)c2c(OC)c1OC [Example 198, N,N-Dimethyl-N′-(3-{[methyl-(5,6,7-trimethoxy-4-oxo-1,4-dihydro-quinazolin-2-yl)-amino]-methyl}-phenyl)-isobutyramidine]	148 to 150
CCc1c(OC)c(OC)cc2[nH]c(N(C)Cc3cccc(/N=C(\C)N(C)C)c3)nc(=O)c12 [Example 199, N′-(3-{[(5-Ethyl-6,7-dimethoxy-4-oxo-1,4-dihydro-quinazolin-2-yl)-methyl-amino]-methyl}-phenyl)-N,N-dimethyl-acetamidine]	224.6 to 225.5
COc1cc2[nH]c(N(C)Cc3cccc(/N=C(\C4CCC4)N(C)C)c3)nc(=O)c2c(OC)c1OC [Example 203, N,N-Dimethyl-N′-(3-{[methyl-(5,6,7-trimethoxy-4-oxo-11,4-dihydro-quinazolin-2-yl)-amino]-methyl}-phenyl)-cyclobutanecarboxamidine]	164.2 to 165.7
COc1cc2[nH]c(N(C)Cc3cccc(/N=C4/CCCN4C)c3)nc(=O)c2c(OC)c1OC [Example 205, 5,6,7-Trimethoxy-2-(methyl-{3-[1-methyl-pyrrolidin-(2Z)-ylideneamino]-benzyl}-amino)-1H-quinazolin-4-one]	130 to 133
COc1cc2[nH]c(N(C)Cc3cc(N(C)C4=NCCC4)ccc3F)nc(=O)c2c(O)c1OC [Example 211, 2-({-[(4,5-Dihydro-3H-pyrrol-2-yl)-methyl-amino]-2-fluoro-benzyl}-methylamino)-5-hydroxy-6,7-dimethoxy-1H-quinazolin-4-one]	264.9 to 267
COc1cc2[nH]c(N(C)Cc3cccc(Nc4ncccn4)c3)nc(=O)c2c(OC)c1OC [Example 213, 5,6,7-Trimethoxy-2-{methyl-[3-(pyrimidin-2-ylamino)-benzyl]-amino}-1H-quinaozlin-4-one]	190.3 to 191.1
COc1cc2[nH]c(N(C)Cc3cccc(Nc4ccnc(Cl)n4)c3)nc(=O)c2c(OC)c1OC [Example 214, 2-{[3-(2-Chloro-pyrimidin-4-ylamino)-benzyl]-methyl-amino}-5,6,7-trimethoxy-1H-quinazolin-4-one]	205.9 to 210.1
COc1cc2[nH]c(N(C)Cc3cccc(Nc4nccc(Cl)n4)c3)nc(=O)c2c(OC)c1OC [Example 215, 2-{[3-(4-Chloro-pyrimidin-2-ylamino)-benzyl]-methyl-amino}-5,6,7-trimethoxy-1H-quinazolin-4-one]	128.9 to 133.4
COc1cc2[nH]c(N(C)Cc3cccc(Nc4nc(Cl)ncc4C)c3)nc(=O)c2c(OC)c1OC [Example 217, 2-{[3-(2-Chloro-5-methyl-pyrimidin-4-ylamino)-benzyl]-methyl-amino}-5,6,7-trimethoxy-1H-quinazolin-4-one]	225.9 to 227

SMILES	melting point [°C]
COc1cc2[nH]c(N(C)Cc3cccc(Nc4cc(C)nc(Cl)n4)c3)nc(=O)c2c(OC)c1OC [Example 218, 2-{[3-(2-Chloro-6-methyl-pyrimidin-4-ylamino)-benzyl]-methyl-amino}-5,6,7-trimethoxy-1H-quinazolin-4-one]	185.5 to 187.1
COc1cc2[nH]c(N(C)Cc3cccc(Nc4nc(C)cc(Cl)n4)c3)nc(=O)c2c(OC)c1OC [Example 219, 2-{[3-(4-Chloro-6-methyl-pyrimidin-2-ylamino)-benzyl]-methyl-amino}-5,6,7-trimethoxy-1H-quinazolin-4-one]	191.3 to 192.8
COc1cc2[nH]c(N(C)Cc3cccc(NCc4ncc[nH]4)c3)nc(=O)c2c(OC)c1OC [Example 220, 2-({3-[(1H-Imidazol-2-ylmethyl)-amino]-benzyl}-methylamino)-5,6,7-trimethoxy-1H-quinazolin-4-one]	125 to 131
COc1cc2[nH]c(N(C)Cc3cccc(/N=C(\C)N(C)C)c3)nc(=O)c2c(F)c1OC [Example 221, N′-(3-{[(5-Fluoro-6,7-dimethoxy-4-oxo-1,4-dihydro-quinazolin-2-yl)-methyl-amino]-methyl}-phenyl)-N,N-dimethyl-acetamidine]	199.9 to 201.9
COc1cc2[nH]c(N(C)Cc3cccc(-n4cnc(C)c4)c3)nc(=O)c2c(C)c1OC [Example 230, 6,7-Dimethoxyt-5-methyl-2-{methyl-[3-(4-methyl-imidazol-1-yl)-benzyl]-amino}-1H-quinazolin-4-one]	245 to 249.5
COc1cc2[nH]c(N(C)Cc3cccc(-n4cccn4)c3)nc(=O)c2c(C)c1OC [Example 232, 6,7-Dimethoxy-5-methyl-2-[methyl-(3-pyrazol-1-yl-benzyl)-amino]-1H-quinazolin-4-one]	220.8 to 224.1
COc1cc2[nH]c(N(C)Cc3cccc(-n4ccc(C)n4)c3)nc(=O)c2c(C)c1OC [Example 233, 6,7-Dimethoxy-5-methyl-2-{methyl-[3-(3-methyl-pyrazol-1-yl)-benzyl]-amino}-1H-quinazolin-4-one]	220 to 223.5
COc1cc2[nH]c(N(C)Cc3ccc(C4=NCCN4C)cc3)nc(=O)c2c(C)c1OC [Example 237, 6,7-Dimethoxy-5-methyl-2-{methyl[4-(1-methyl-,5-dihydro-1H-imidazol-2-yl)-benzyl]-amino}-1H-quinazolin-4-oine]	179 to 181
COc1cc2[nH]c(N(C)Cc3cccc(C4=NCCN4CCO)c3)nc(=O)c2c(C)c1OC [Example 244, 2-({3-[1-(2-Hydroxy-ethyl)-4,5-dihydro-1H-imidazol-2-yl]-benzyl}-methyl-amino)-6,7-dimethoxy-5-methyl-1H-quinazolin-4-one]	253 to 254.9
COCCN1CCN=C1c1cccc(CN(C)c2nc(=O)c3c(C)c(OC)c(OC)cc3[nH]2)c1 [Example 246, 6,7-Dimethoxy-2-*{3-[1-(2-methoxy-ethyl)-4,5-dihydro-1H-imidazol-2-yl]-benzyl}-methyla-mino)-5-methyl-1H-quinazolin-4-one]	161 to 164.4
COc1cc2[nH]c(N(C)Cc3cccc(-c4ncc[nH]4)c3)nc(=O)c2c(C)c1OC [Example 248, 2-{[3-(1H-Imidazol-2-yl)-benzyl]-methyl-amino}-6,7-dimethoxy-5-methyl-1H-quinazolin-4-one]	255.5 to 258.9
COc1cc2[nH]c(N(C)Cc3cccc(-c4nccn4C)c3)nc(=O)c2c(C)c1OC [Example 249, 6,7-Dimethoxy-5-methyl-2-{methyl-[3-(1-methyl-`1H-imidazol-2-yl)-benzyl]-amino}-1H-quinazolin-4-one]	179 to 182.1
COc1cc2[nH]c(N(C)Cc3cccc(N4CCCS4(=O)=O)c3)nc(=O)c2c(C)c1OC [Example 252, 2-{[3-(1,1-Dioxo-1λ6-isothiazolidin-2-yl)-benzyl]-methyl-amino}-6,7-dimethoxy-5-methyl-1H-quinazolin-4-one]	226 to 228.5
COc1cc2[nH]c(N(C)Cc3cccc(N4CCCS4(=O)=O)c3)nc(=O)c2c(OC)c1OC [Example 253, {[3-(1,1-Dioxo-1λ6-isothiazolidin-2-yl)-benzyl]-methyl-amino}-5,6,7-trimethoxy-1H-quinazolin-4-one]	181.1 to 183.5
COc1cc2[nH]c(N(C)Cc3cccc(N4CCOC4=O)c3)nc(=O)c2c(C)c1OC [Example 254, 6,7-Dimethoxy-5-methyl-2-{methyl-[3-(2-oxo-oxazolidin-3-yl)-benzyl]-amino}-1H-quinazolin-4-one]	254.8 to 257.1
COc1cc2[nH]c(N(C)Cc3cccc(N4CCOC4=O)c3)nc(=O)c2c(OC)c1OC [Example 255, 5,6,7-ZTrimethoxy-2-{methyl[3-(2-oxo-oxazolidin-3-yl)-benzyl]-amino}-1H-quinazolin-4-one]	226 to 229.5
COc1cc2[nH]c(N(C)Cc3cccc(N4CCC(C)C4=O)c3)nc(=O)c2c(C)c1OC (stereo not shown) [Example 256, 6,7-Dimethoxy-5-methyl-2-{methyl-[3-(3-methyl-2-oxo-pyrrolidin-1-yl)-benzyl]-amino}-1H-quinazolin-4-one]	210.8 to 211.6
